We go through 18 compounds from patent US10759748B2, “Compounds as L-cystine crystallization inhibitors and uses thereof” (NEW YORK UNIVERSITY, priority 2011, dated 2020).

A short description of data set [1]: Real time in situ AFM step velocity measurements of L-cystine crystal growth with additive. As to conditions: for Vo/V (inverse of V/Vo): higher = more effective inhibition; for V/Vo (normalized velocity of step advancement): supersaturated L-cystine solution, lower = more effective inhibition. As for the experimental part: A Digital Instruments (Santa Barbara, Calif.) Nanoscope IIIa Multimode system is used for topographical and lattice imaging. All measurements are performed in contact mode using Veeco NP_B Si3N4 cantilever tips with a spring constant of 0.12 N/m (triangular, 196 μm length, 41 μm width) on a glass cantilever holder, and a liquid cell is created for in situ step velocity measurements. All L-cystine crystals for AFM measurements are prepared by the method described herein. Crystals are transferred onto an AFM specimen disk coated with partially cured (1 hr) UV-curable optical cement (Type SK-9, EMS Acquisition Corp.) by gently pressing the disk against hexagonal platelets or L-cystine needles isolated by filtration (Whatman Nuclepore membrane, 8 μm). The (0001) face of hexagonal platelets is exposed normal to the disk for AFM analysis with growth occurring along equivalent {1010} faces in the lateral directions, while the sides of L-cystine needles are exposed normal to the disc. The partially cured polymer with adhered crystals is completely cured by additional UV radiation (2 hrs) prior to analysis. Measurements of individual step heights for hexagonal L-cystine crystals are acquired in air (contact mode) at a scan rate of 1.00 Hz and 256 samples per line over a 15×15 μm^2 surface area. Integral and proportional gains are set to the highest possible values without obtaining feedback. Four hexagonal crystals (5 areas per crystal) are analyzed for statistical step height distributions, which are calculated from >10^3 individual steps. Lattice-resolved images of crystal surfaces are acquired in water (contact mode) using a scan rate of 112 Hz over a 12×12 nm^2 area.
Real time in situ step velocity measurements of L-cystine growth are assessed along six structurally-equivalent {1010} faces of the hexagonal structure. A liquid cell is created with the glass cantilever tip holder, and working solutions are injected through a 1-mL syringe. Prior to injecting the growth medium (i.e. supersaturated L-cystine solution), crystals are etched with deionized water in the fluid cell for one hour to remove amorphous deposits or impurities that may be present on the surface. Supersaturated solutions (0.5 g/L) are generated by adding L-cystine to deionized water, boiling the solution on a heating mantle for 20 min to completely dissolve the solute, and allowing the solution to cool for 20 min on the heating mantle before transferring the solution (via syringe) to the AFM fluid cell. This method allows the solution to gradually cool to room temperature prior to AFM measurements in an effort to minimize premature nucleation of L-cystine in the growth solution.
The effect of the compound of invention (additives) on crystal growth rates is investigated. Additives are combined with the supersaturated L-cystine following the 20 min cool down period (as discussed above) to avoid denaturing biological additives at higher temperature. A small volume (0.2 mL) of concentrated additive is mixed with 4.8 mL of L-cystine to generate 0.48 g/L L-cystine solutions with additives of varying concentrations. Control measurements without additive are performed in a similar manner, replacing concentrated additive solutions deionized water to maintain a constant L-cystine concentration. Data collection is started immediately after injecting the working solution into the AFM liquid cell. For each measurement, growth is first assessed in the absence of additive, then in the presence of additive on the identical area of the crystal surface to analyze relative changes in step velocity. Measurements are acquired at static conditions without refreshment of growth solution using supersaturated L-cystine solutions […] than the solubility of L-cystine in water, which is reported as 0.4-0.7 mM (pH 7, 25° C.). […] At static conditions, solute is depleted from solution during growth, leading to a slight decrease in the step velocity with increasing time. […]

For data set [2] the following is noted: pH 7, 25° C.; cited from earlier work.

For the compound `N[C@@H](CSSC[C@H](N)C(=O)Oc1ccccc1)C(=O)Oc1ccccc1` [Compound 2, L-cystine diphenyl ester], in data set [1] (additive 0.015 mM), the “Vo/V (inverse of V/Vo)” value came to 2.44 and the “V/Vo (normalized velocity of step advancement)” value is given as 0.41.
For `COC(=O)[C@@H](N)CCCC[C@H](N)C(=O)OC` [Compound 12, L-dimethyl 2,7-diaminooctanedioate], in that order: 1.09 and 0.92.
For `COC(=O)[C@@H](N)C/C=C/C[C@H](N)C(=O)OC` [Compound 10, L-dimethyl 2,7-diaminooct-4-enedioate] the same measures were 1.23 and 0.81.
For the compound `COC(=O)[C@@H](N)CO` [Compound 19, L-serine methyl ester], in data set [1] (additive 0.03 mM), the “Vo/V (inverse of V/Vo)” value worked out at 0.93 and the “V/Vo (normalized velocity of step advancement)” value was 1.07.
In the case of `CC(C)OC(=O)[C@@H](N)CSSC[C@H](N)C(=O)OC(C)C` [Compound 6, L-cystine diisopropyl ester], in data set [1] (additive 0.015 mM), the “Vo/V (inverse of V/Vo)” value is 1.55 and the “V/Vo (normalized velocity of step advancement)” value is recorded as 0.64.
For `N[C@@H](CCCC[C@H](N)C(=O)O)C(=O)O` [Compound 14, L-diaminooctanedioic acid] the same measures were 1.03 and 0.97.
As to `CC(C)(C)OC(=O)[C@@H](N)CSSC[C@H](N)C(=O)OC(C)(C)C` [Compound 8, L-cystine ditert-butyl ester], in data set [1] (additive 0.015 mM), the “Vo/V (inverse of V/Vo)” value is listed as 1.43 and the “V/Vo (normalized velocity of step advancement)” value turned out to be 0.7.
Consider `N[C@@H](CS)C(=O)O` [Compound 17, L-cysteine, reference compound], for which, in data set [1] (additive 0.03 mM), the “Vo/V (inverse of V/Vo)” value is given as 1 and the “V/Vo (normalized velocity of step advancement)” value came out at 1.
For the compound `CC(C)(C)OC(=O)N[C@@H](CSSC[C@H](NC(=O)OC(C)(C)C)C(=O)O)C(=O)O` [Compound 11, Nα,Nα′-di-Boc-L-cystine, reference compound], in data set [1] (additive 0.09 mM), the “Vo/V (inverse of V/Vo)” value was found to be 1.23 and the “V/Vo (normalized velocity of step advancement)” value stood at 0.81.
Consider `COC(=O)[C@@H](N)CS` [Compound 3, L-cysteine methyl ester], for which, in data set [1] (additive 0.03 mM), the “Vo/V (inverse of V/Vo)” value came to 2.05 and the “V/Vo (normalized velocity of step advancement)” value worked out at 0.49.
As to `COC(=O)[C@@H](N)CCSSCC[C@H](N)C(=O)OC` [Compound 5, L-homocystine dimethyl ester], in data set [1] (additive 0.015 mM), the “Vo/V (inverse of V/Vo)” value came to 1.59 and the “V/Vo (normalized velocity of step advancement)” value came to 0.63.
For `N[C@@H](CCSSCC[C@H](N)C(=O)O)C(=O)O` [Compound 18, L-Homocystine, reference compound], in that order: 0.95 and 1.05.
For `NCCSSCCN` [Compound 16, cystamine], in data set [1] (additive 0.015 mM), the “Vo/V (inverse of V/Vo)” value stood at 1 and the “V/Vo (normalized velocity of step advancement)” value is on record as 1.
Take `N[C@@H](CSSC[C@H](N)C(=O)O)C(=O)O` [L-cystine]: in data set [2], the “solubility of L-cystine in water” value is 0.4 to 0.7 mM.
In the case of `CCOC(=O)[C@@H](N)CSSC[C@H](N)C(=O)OCC` [Compound 4, L-cystine diethyl ester], in data set [1] (additive 0.015 mM), the “Vo/V (inverse of V/Vo)” value worked out at 1.79 and the “V/Vo (normalized velocity of step advancement)” value is 0.56.
For `COC(=O)[C@@H](N)CSSC[C@H](N)C(=O)OC` [Compound 1, L-cystine dimethyl ester], in that order: 2.62 and 0.38.
For `COC(=O)[C@@H](N)CSSC[C@H](N)C(=O)O` [Compound 7, L-cystine methyl ester], in that order: 1.47 and 0.68.
As for `CC(S)C(=O)NCC(=O)O` (centres unmarked) [Compound 9, N-(2-Mercapto-propionyl)glycine, reference compound], in data set [1] (additive 0.03 mM), the “Vo/V (inverse of V/Vo)” value is given as 1.35 and the “V/Vo (normalized velocity of step advancement)” value is on record as 0.74.
